Data reported in patent publication US8883782B2, “Spiro-tetracyclic ring compounds as beta-secretase modulators and methods of use” (Amgen Inc., priority 2010, dated 2014).
pIC50: −log10 of the molar value. Where two headings read alike, the source gives them in different places.

Assays:
[1] = test system: Aβ40 in conditioned medium of cells stably expressing Amyloid Precursor Protein (APP); assay: In vitro BACE cell-based assay (Aβ40 in conditioned medium, sandwich ELISA); settings: Homo sapiens; for pIC50: read-out: HEK cell assay
Summary of the method: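 Conditioned medium from stably APP-expressing cells treated with compound dose series is assayed for Aβ40 by sandwich ELISA with time-resolved fluorescence detection. IC50 is calculated from percent inhibition of Aβ40 against compound concentration.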

[2] = test system: Abeta 40 in cerebrospinal fluid (CSF) and brain; assay: In vivo inhibition of beta-secretase (Abeta 40 reduction in CSF and brain); settings: rat, after 4 hrs; for inhibition in vivo at 10 mg/kg: Abeta 40, 10 mg/kg (10 mpk); for inhibition in vivo at 3 mg/kg: Abeta 40, 3 mpk
Text: In Vivo Inhibition of Beta-Secretase
Several animal models, including mouse, rat, dog, and monkey, may be used to screen for inhibition of beta-secretase activity in vivo following administration of a test compound sample. Animals used in this invention can be wild type, transgenic, or gene knockout animals. […] A separate group of animals receive 2% hydroxypropyl methylcellulose, 1% Tween80 alone, containing no test compound, and serve as a vehicle-control group. At the end of the test period, animals are sacrificed and brain tissues, plasma or cerebrospinal fluid are collected. […] Homogenates are centrifuged at 355,000 g, 4° C. for 30 minutes. CSF or brain supernatants are then analyzed for the presence of A-beta peptide by specific sandwich ELISA assays based on ECL (Electrochemiluminescence) technology. For example, rat Abeta40 is measured using biotinylated-4G8 (Signet) as a capture antibody and Fab40 (an in-house antibody specific to the C-terminal of Abeta40) as a detection antibody.
Actual vehicles used: Oral: 2% HPMC, 1% Tween80, pH 2.2

[3] = molecular target: Beta Secretase enzyme (BACE) (Homo sapiens, UniProt P56817); assay: In vitro enzymatic BACE FRET (fluorescence resonance energy transfer) assay; type: biochemical; settings: for pIC50: average IC50, enzyme assay, read-out: BACE 1 FRET assay
Summary of the method: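 Enzyme activity was measured at pH 4.2 (0.05 M acetate, 10% DMSO final, 100 uM genapol) by cleavage of a 50 nM quenched fluorogenic peptide. After one hour, Tris was added to neutralise the pH and fluorescence was recorded.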

[4] = CSF, read-out: CSF A-beta reduction % at 10 mg/kg
[5] = brain, read-out: Brain A-beta reduction % at 10 mg/kg
[6] = HEK293, average IC50, HEK cells

Sequence of Beta Secretase enzyme (BACE) (P56817 46-501, species assumed): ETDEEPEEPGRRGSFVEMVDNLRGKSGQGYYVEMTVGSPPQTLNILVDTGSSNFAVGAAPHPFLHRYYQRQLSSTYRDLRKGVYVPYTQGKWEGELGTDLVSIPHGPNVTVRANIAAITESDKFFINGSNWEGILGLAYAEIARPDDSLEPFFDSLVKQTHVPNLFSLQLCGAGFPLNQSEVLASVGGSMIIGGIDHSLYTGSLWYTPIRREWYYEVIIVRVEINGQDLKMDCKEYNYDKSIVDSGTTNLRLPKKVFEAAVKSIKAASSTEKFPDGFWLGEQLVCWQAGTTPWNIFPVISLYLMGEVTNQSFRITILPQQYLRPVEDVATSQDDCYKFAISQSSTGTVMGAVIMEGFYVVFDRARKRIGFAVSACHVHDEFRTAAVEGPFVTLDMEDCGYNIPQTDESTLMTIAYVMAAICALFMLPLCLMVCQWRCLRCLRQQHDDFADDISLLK

Compound | IC50 ([1]; HEK293, read-out: HEK cell assay (uM), average IC50, HEK cell assay) | inhibition in vivo at 10 mg/kg [2, 4] | inhibition in vivo at 10 mg/kg [2, 5] | IC50 ([3]; BACE 1 FRET assay (uM)) | pIC50 [1, 6] | pIC50 [3] | pIC50 ([1]; HEK293, average IC50) | inhibition in vivo at 3 mg/kg ([2]; CSF, read-out: CSF A-beta reduction % at 3 mpk) | inhibition in vivo at 3 mg/kg ([2]; brain, read-out: Brain A-beta reduction % at 3 mpk)
NC1=N[C@@]2(CO1)c1cc(-c3c(F)ccnc3F)ccc1Oc1cnc(C3=CCOCC3)cc12 [Example 89, (5S)-7-(2,4-difluoro-3-pyridinyl)-3-(3,6-dihydro-2H-pyran-4-yl)spiro[chromeno[2,3-c]pyridine-5,4′-[1,3]oxazol]-2′-amine] | 0.0047 µM | 80% | 69% | 0.0007 µM |  |  |  |  | 
NC1=N[C@@]2(CS1)c1cc(-c3cccnc3F)ccc1Oc1ncc(C3=CCOCC3)cc12 [Example 97, (S)-3-(3,6-dihydro-2H-pyran-4-yl)-7-(2-fluoropyridin-3-yl)-5′H-spiro[chromeno[2,3-b]pyridine-5,4′-thiazol]-2′-amine] |  | 46% | 28% |  | 8.12 | 9.30 |  |  | 
CC1(C#Cc2cnc3c(c2)[C@]2(COC(N)=N2)c2cc(-c4cccc(C#N)c4)ccc2O3)COC1 [Example 127, (S)-3-(2′-amino-3-((3-methyloxetan-3-yl)ethynyl)-5′H-spiro[chromeno[2,3-b]pyridine-5,4′-oxazole]-7-yl)benzonitrile] |  | 61% | 45% |  |  | 8.96 | 8.30 |  | 
NC1=N[C@@]2(CO1)c1cc(-c3cccnc3F)ccc1Oc1c(F)cc(-c3ncccn3)cc12 [Example 128, (S)-4′-fluoro-7′-(2-fluoropyridin-3-yl)-2′-(pyrimidin-2-yl)-5H-spiro[oxazole-4,9′-xanthen]-2-amine] |  | 75% | 57% |  |  | 8.96 | 8.09 |  | 
Cc1cnc(F)c(-c2ccc3c(c2)[C@@]2(COC(N)=N2)c2cc(N4CCOCC4)cc(F)c2O3)c1 [Example 132, (S)-4′-fluoro-7′-(2-fluoro-5-methylpyridin-3-yl)-2′-morpholino-5H-spiro[oxazole-4,9′-xanthen]-2-amine] |  | 54% | 45% |  |  | 8.82 | 8.22 |  | 
N#Cc1cccc(-c2ccc3c(c2)[C@@]2(COC(N)=N2)c2cc(N4CCC(F)(F)C4)ncc2O3)c1 [Example 134, (S)-3-(2′-amino-3-(3,3-difluoropyrolidin-1-yl)-5′H-spiro[chromeno[2,3-c]pyridine-5,4′-oxazole]-7-yl)benzonitrile] |  | 61% | 45% |  | 7.92 | 9.00 |  |  | 
CC1(C)C=C(c2cc3c(cn2)Oc2ccc(-c4cncc(F)c4)cc2[C@@]32COC(N)=N2)CCO1 [Example 135, (S)-3-(6,6-dimethyl-3,6-dihydro-2H-pyran-4-yl)-7-(5-fluoropyridin-3-yl)-5′H-spiro[chromeno[2,3-c]pyridine-5,4′-oxazol]-2′-amine] |  | 61% | 44% |  |  | 8.89 | 8.00 |  | 
NC1=N[C@@]2(CO1)c1cc(-c3cccnc3)ccc1Oc1cnc(N3CCC(F)(F)C3)cc12 [Example 138, (S)-3-(3,3-difluoropyrrolidin-1-yl)-7-(pyridin-3-yl)-5′H-spiro[chromeno[2,3-c]pyridine-5,4′-oxazol]-2′-amine] |  | 67% | 48% |  | 8.28 | 8.96 |  |  | 
NC1=N[C@@]2(CO1)c1cc(-c3cccnc3F)ccc1Oc1c(F)cc(N3CC4CCC(C3)O4)cc12 [Example 225, (4S)-2′-(8-oxa-3-azabicyclo[3.2.1]octan-3-yl)-4′-fluoro-7′-(2-fluoropyridin-3-yl)-5H-spiro[oxazole-4,9′-xanthen]-2-amine] |  | 64% | 47% |  |  | 9.52 | 8.80 |  | 
Cc1cnc(-c2cc(F)c3c(c2)[C@]2(COC(N)=N2)c2cc(-c4cccnc4F)ccc2O3)nc1 [Example 226, (S)-4′-fluoro-7′-(2-fluoropyridin-3-yl)-2′-(5-methylpyrimidin-2-yl)-5H-spiro[oxazole-4,9′-xanthen]-2-amine] |  | 31% | 19% |  |  | 8.41 | 7.57 |  | 
Cc1ccnc(F)c1-c1ccc2c(c1)[C@@]1(COC(N)=N1)c1cc(C3=CCOCC3)ncc1O2 [Example 236, (S)-3-(3,6-dihydro-2H-pyran-4-yl)-7-(2-fluoro-4-methylpyridin-3-yl)-5′H-spiro[chromeno[2,3-c]pyridine-5,4′-oxazol]-2′-amine] |  | 58% | 34% |  |  | 9.05 | 8.22 |  | 
Cn1cc(-c2cc(F)c3c(c2)[C@]2(COC(N)=N2)c2cc(-c4ccc(F)nc4)ccc2O3)cn1 [Example 262, (S)-4′-fluoro-7′-(6-fluoropyridin-3-yl)-2′-(1-methyl-1H-pyrazol-4-yl)-5H-spiro[oxazole-4,9′-xanthen]-2-amine] |  | 36% | 11% |  |  | 8.48 | 7.90 |  | 
CC1(C)C=C(c2cc3c(cn2)Oc2ccc(-c4ccc(F)nc4)cc2[C@@]32COC(N)=N2)CCO1 [Example 369, (S)-3-(6,6-dimethyl-3,6-dihydro-2H-pyran-4-yl)-7-(6-fluoropyridin-3-yl)-5′H-spiro[chromeno[2,3-c]pyridine-5,4′-oxazol]-2′-amine] |  | 46% | 31% |  |  | 8.55 | 7.79 |  | 
NC1=N[C@@]2(CO1)c1cc(-c3cccnc3)ccc1Oc1cnc(N3CCC(F)(F)CC3)cc12 [Example 402, (5S)-3-(4,4-difluoro-1-piperidinyl)-7-(3-pyridinyl)spiro[chromeno[2,3-c]pyridine-5,4′-[1,3]oxazol]-2′-amine] |  | 52% | 28% |  | 7.88 | 8.62 |  |  | 
NC1=N[C@@]2(CO1)c1cc(-c3cncc(F)c3)ccc1Oc1cnc(N3CCC(F)(F)CC3)cc12 [Example 414, (5S)-3-(4,4-difluoro-1-piperidinyl)-7-(5-fluoro-3-pyridinyl)spiro[chromeno[2,3-c]pyridine-5,4′-[1,3]oxazol]-2′-amine] |  | 64% | 44% |  | 7.87 | 8.82 |  |  | 
Cc1ccc(-c2cc(F)c3c(c2)[C@]2(COC(N)=N2)c2cc(OCC(C)(C)C#N)ccc2O3)cn1 [Example 443, (S)-3-(2-amino-4′-fluoro-2′-(6-methylpyridin-3-yl)-5H-spiro[oxazole-4,9′-xanthene]-7′-yloxy)-2,2-dimethylpropanenitrile] |  | 35% | 7% |  | 7.94 | 8.30 |  |  | 
NC1=N[C@@]2(CO1)c1cc(-c3cnccn3)ccc1Oc1c(F)cc(C3=CCOCC3)cc12 [Example 452, (S)-2′-(3,6-dihydro-2H-pyran-4-yl)-4′-fluoro-7′-(pyrazin-2-yl)-5H-spiro[oxazole-4,9′-xanthen]-2-amine] |  | 56% | 35% |  | 7.94 | 8.70 |  |  | 
CC1(C#Cc2cnc3c(c2)[C@]2(COC(N)=N2)c2cc(-c4cccc(Cl)c4F)ccc2O3)COC1 [Example 463, (S)-7-(3-chloro-2-fluorophenyl)-3-((3-methyloxetan-3-yl)ethynyl)-5′H-spiro[chromeno[2,3-b]pyridine-5,4′-oxazol]-2′-amine] |  | 30% | 9% |  | 7.84 | 9.10 |  |  | 
CC1(C)C=C(c2ccc3c(c2)[C@]2(COC(N)=N2)c2cc(-c4cncnc4)c(F)cc2O3)CCO1 [Example 508, (R)-7′-(6,6-dimethyl-3,6-dihydro-2H-pyran-4-yl)-3′-fluoro-2′-(pyrimidin-5-yl)-5H-spiro[oxazole-4,9′-xanthen]-2-amine] |  | 49% | 25% |  | 7.84 | 8.43 |  |  | 
CC(C)(F)COc1cc(F)c2c(c1)[C@]1(COC(N)=N1)c1cc(-c3cncnc3)c(F)cc1O2 [Example 668, (4S)-3′,5′-difluoro-7′-(2-fluoro-2-methylpropoxy)-2′-(5-pyrimidinyl)spiro[1,3-oxazole-4,9′-xanthen]-2-amine] |  |  |  |  | 7.96 | 9.10 |  | 55% | 46%
NC1=N[C@@]2(CS1)c1cc(-c3cccnc3F)ccc1Oc1ncc(C3=CCCOC3)cc12 [Example 672, (5S)-3-(5,6-dihydro-2H-pyran-3-yl)-7-(2-fluoro-3-pyridinyl)spiro[chromeno[2,3-b]pyridine-5,4′-[1,3]thiazol]-2′-amine] |  | 64% | 47% |  | 8.00 | 9.15 |  |  | 
